Measured values as given in patent publication US20220257684A1, “ANTI-COCCIDIAL PHYTOGENIC FORMULATIONS” (priority 2019, published 2022).
“And” between values parts separate entries of the source, which are not always exact repeats. Equal values may be shown once. Marks after values point to notes of the source that are not given here.

Key:
[1] = tested on: E. tenella challenged chickens; experiment: Fecal oocyst excretion in E. tenella challenged chickens; assay type: in vivo, chicken
From the text: (§1) FIG. 4A is a schematic drawing showing the experimental protocol used in in vivo studies. Birds in untreated groups had daily access to standard diet, and birds in treated groups were fed with diet containing salinomycin, A. indica (AI), B. pilosa (BP), or a mixture of AI plus BP. On day 7, chickens were challenged with PBS or E. tenella (ET) sporulated oocysts (1×10^4) by gavage. The survival rate in each group was monitored from day 1 to 7 post infection.
(§2) Birds, diets, and experimental design. One-day-old Lohmann broiler chicks hatched at Taichung Hatchery (Taiwan) were wing-banded upon arrival, weighed, and randomly placed in Petersime starter brooder units. At 1 to 2 days post-hatching, the birds were given free access to water and diets. The diets were formulated by mixing a base diet with a carrier alone (control diet) or with an indicated dose of a phytogenic formulation comprising Artemisia indica (AI), B. pilosa (BP), or both AI and BP. After grouping, birds were tube-fed with Eimeria oocysts to get infection. Growth performance (body weight and feed conversion), pathology (bloody droppings and gut morphometry) and survival rate were measured and examined (FIG. 4A). All birds were maintained in the institutional animal facility and handled according to institutional guidelines.
(§3) The anti-coccidial effects of the extracts of A. indica (AI), B. pilosa (BP) and a combination of both extracts were examined in vivo. Chickens were randomly divided into 8 groups and given daily (Day 1 to Day 14) access to standard chicken feed (Groups 1 and 2), feed containing salinomycin (Group 3), or feed containing the plant extracts (Groups 4 to 8) at the indicated doses (FIG. 4A).
Excretion of Eimeria oocysts in the feces of ET-infected chickens is an indicator of Eimeria multiplication. The oocysts per gram feces (OPG) in the chickens from FIG. 4B were counted from Day 3 to Day 7 post ET infection. No oocysts in the feces were detected in the uninfected unmedicated control group (Group 1, Table 3). Fecal oocyst excretion was first detected on Day 4 post infection in all the ET-infected groups and reached its peak on Day 7 post infection (Group 2).

[2] = tested on: E. tenella challenged chickens; experiment: Microscopic cecal lesion scores and histology in E. tenella challenged chickens; assay type: in vivo, chicken; details: ceca, Day 7 post ET infection
From the text: as §1, §2
Immunohistochemical staining. Multiple parallel sections of the ceca from chickens that had access to control diet and the diet containing Artemisia indica (AI), B. pilosa (BP), or both for 14 days were flash-frozen. The sections were stained with H&E or anti-insulin antibody, with development of diaminobenzidine tetrahydrochloride, followed by image analysis (Yang et al. Research in Veterinary Science (2015) 98:74-81).
as §3
Mucosal damages caused by coccidia were examined under microscope and scored as microscopic cecal lesions based on the distribution and severity of the mucosal destructions in the chicken cecum.

[3] = tested on: E. tenella challenged chickens; experiment: Body weight gain in E. tenella challenged chickens; assay type: in vivo, chicken; details: BP alone 0.01%, AI alone 0.01%
From the text: as §1
as §2, with “All birds were maintained in the institutional animal facility and handled according to institutional guidelines.” left out
Body weights (BW) of the chickens from FIG. 4B were monitored on Days 1, 7 and 14, and body-weight (BW) gains were calculated on Days 7 and 14. […]

[4] = tested on: E. tenella (ET) sporozoites invading Madin-Darby bovine kidney (MDBK) cells; experiment: Invasion assay (sporozoite entry into MDBK cells); assay type: cell-based, Eimeria tenella; details: at 50 μg/ml; untreated invasion 20% of the cells
Procedure: FIGS. 3A-C are photomicrographs (left panels) and bar graphs (right panels) illustrating the in vitro effects of formulations composed of A. indica (AI), B. pilosa (BP), or a mixture of A. indica (AI) and B. pilosa (BP) on E. tenella (ET) sporozoite invasion. Madin-Darby bovine kidney (MDBK) cells were incubated with salinomycin (Sal), or plant extracts containing A. indica (AI)(3A), B. pilosa (BP) (3B) or a mixture of AI and BP (3C) at indicated dosages for 0.5 h. The sporozoites were added to the MDBK cells for […]. After washing, the MDBK cells were stained with hematoxylin and eosin (H&E) and counted. The invasion percentage (%) was plotted into bar graphs. The inset represents a magnified area. Scale bars of microscope in 100× and 40× (inset) are 10 μm and 50 μm (inset), respectively. Arrowhead indicates the MDBK cells infected with sporozoites.
Invasion assay. Madin-Darby bovine kidney (MDBK, ATCC® CCL-22) cells, grown in DMEM containing fetal bovine serum (10%) and supplements, were seeded onto glass cover slips in 24 wells at 2×10^5 cells/well. One day later, the cells were pre-incubated with DMEM medium containing salinomycin, or plant extracts and phytochemicals at doses indicated for 0.5 h. Fresh sporozoites (2×10^5) were added to the cells for additional 4 h. […]

[5] = tested on: E. tenella challenged chickens; experiment: Gross cecal lesion scores in E. tenella challenged chickens; assay type: in vivo, chicken; details: ceca, Day 7 post ET infection
From the text: as §1, §2, §3
Gross lesions in the ceca of the chickens from FIG. 4B were examined and scored. The uninfected unmedicated control chickens (Group 1, Table 4) had no lesions in the ceca (score=0). The ET infection caused more gross cecal lesions in the gut of unmedicated chickens, as evidenced by an average lesion score of 4 (Group 2) on Day 7 post infection.

[6] = tested on: E. tenella challenged chickens; experiment: Bloody stools in E. tenella challenged chickens; assay type: in vivo, chicken; details: Day 7 post ET infection, versus infected unmedicated birds (100%), FIG. 5
From the text: as §1
FIG. 5 is a bar graph showing percentage of bloody stools in each chicken group of FIG. 4A-B on Day 7 post E. tenella (ET) infection. Chicken stools were classified on Day 1 to Day 7 post infection.
as §2, with “All birds were maintained in the institutional animal facility and handled according to institutional guidelines.” left out

[7] = tested on: E. tenella challenged chickens; experiment: Survival rate in E. tenella challenged chickens; assay type: in vivo, chicken; details: ET-infected chickens (1×10^4 oocysts), substance in feed; infected standard feed 60%; FIG. 4B
From the text: as §1
FIG. 4B is a graph showing survival rate in each group of FIG. 4A. Chickens were divided into eight groups: Group 1 (G1), uninfected and fed with a standard diet; Group 2 (G2), ET-infected and fed with a standard diet; Group 3 (G3) to Group 8 (G8), ET-infected and fed with diet containing salinomycin, BP alone, a combination of BP and different dosages of AI, or AI alone without BP as indicated. Each group has 15 chicks and P values are indicated.
Birds, diets, and experimental design. One-day-old Lohmann broiler chicks hatched at Taichung Hatchery (Taiwan) were wing-banded upon arrival, weighed, and randomly placed in Petersime starter brooder units. At 1 to 2 days post-hatching, the birds were given free access to water and diets. […] Growth performance (body weight and feed conversion), pathology (bloody droppings and gut morphometry) and survival rate were measured and examined (FIG. 4A). […]

[8] = tested on: E. tenella challenged chickens; experiment: Feed conversion rate in E. tenella challenged chickens; assay type: in vivo, chicken; details: BP alone 0.01%, AI alone 0.01% in feed
From the text: as §1
as §2, with “guidelines. […]” for “guidelines.”

[9] = tested on: E. tenella oocysts; experiment: Sporulation assay; assay type: cell-based, Eimeria tenella; details: positive control, FIG. 2A
Procedure: FIGS. 2A-C are photomicrographs (upper panels) and bar graphs (lower panels) illustrating the in vitro effects of formulations comprising A. indica (AI), B. pilosa (BP), or a mixture of A. indica (AI) and B. pilosa (BP) on viability of E. tenella (ET) oocysts and its sporulation. The oocysts were pre-treated with PBS, sodium dithionite (SD), an inhibitor of oocyst sporulation or plant extracts containing AI (2A), BP (2B), or both AI and BP (2C) at the indicated dosages for 48 h. The oocysts were induced to sporulate by potassium dichromate for 2 days. The percentage of sporulating oocysts was counted using a microscope ([…]) and plotted into bar graphs (right panel); scale bar is 200 μm. Arrow indicates sporulating oocysts whilst arrowhead indicates non-sporulating oocysts.
Sporulation assay. The E tenella oocysts were pre-treated with PBS, boiling (100° C. for 30 min) or plant extracts at indicated doses for 48 h. The oocysts were incubated with 2% potassium dichromate for 2 days before sporulation. The percentage of sporulating oocysts (%) was counted.
The effects of the plant extracts on sporulation of E. ET oocysts were tested. Seventy percent of ET oocysts were able to sporulate in the in vitro culture (PBS, FIG. 2A). […]

## CC[C@@H](C(=O)[C@@H](C)[C@@H](O)[C@H](C)[C@@H]1O[C@@H]([C@@H](CC)C(=O)O)CC[C@@H]1C)[C@H]1O[C@]2(C=C[C@@H](O)[C@]3(CC[C@@](C)([C@H]4CC[C@](O)(CC)[C@H](C)O4)O3)O2)[C@H](C)C[C@@H]1C [salinomycin, Salinomycin]
[1]; Day 3 to Day 7 post ET infection
  oocysts per gram of feces versus infected unmedicated birds (Group 2), result in words: slightly less oocysts per gram of feces
[1]; oocysts per gram feces, Day 3 post ET infection, BP alone 0.01%, AI alone 0.01% in feed
  Ln(OPG ± 1), 3 days post-infection: 0 ± 0
[1]; oocysts per gram feces, Day 4 post ET infection, BP alone 0.01%, AI alone 0.01% in feed
  Ln(OPG ± 1), 4 days post-infection: 3.45 ± 0.16^a,b
[1]; oocysts per gram feces, Day 5 post ET infection, BP alone 0.01%, AI alone 0.01% in feed
  Ln(OPG ± 1), 5 days post-infection: 4.49 ± 0.02^a,b
[1]; oocysts per gram feces, Day 6 post ET infection, BP alone 0.01%, AI alone 0.01% in feed
  Ln(OPG ± 1), 6 days post-infection: 4.89 ± 0.01^a,b
[1]; oocysts per gram feces, Day 7 post ET infection, BP alone 0.01%, AI alone 0.01% in feed
  Ln(OPG ± 1), 7 days post-infection: 5.33 ± 0.01^a,b
[2]
  Microscopic lesion score 0 (fraction): 0/15
  Microscopic lesion score 1 (fraction): 0/15
  Microscopic lesion score 3 (fraction): 0/15
  Microscopic lesion score 5 (fraction): 0/15
  Microscopic lesion score 7 (fraction): 2/15
[2]; infected unmedicated 7.20, BP alone 0.01%, AI alone 0.01% in feed
  Microscopic lesion score, Average: 6.29 and 6.29 ± 0.13
[3]; body weight Day 7 minus Day 1, prior to ET infection, substance in feed from Day 1
  BWG (g) Day 7-1: 27.64 ± 1.16 g
[3]; body weight Day 14 minus Day 1, ET oocysts (1×10^4) on Day 7, substance in feed Day 1 to 14
  BWG (g) Day 14-1: 56.33 g and 56.33 ± 3.15 g
[4]
  ET sporozoite invasion (invasion percentage of MDBK cells): 10%
[5]; chickens in grade / n
  Gross lesion score 0: number of chickens: 0/15
  Gross lesion score 1: number of chickens: 0/15
  Gross lesion score 2: number of chickens: 0/15
  Gross lesion score 3: number of chickens: 1/15
  Gross lesion score 4: number of chickens: 6/15
[5]; infected unmedicated 4.00, BP alone 0.01%, AI alone 0.01% in feed
  Gross lesion score, Average: 3.86 and 3.86 ± 0.10
[6]
  percentage of bloody stools: significantly decrease in the percentage of bloody stools
[7]
  survival rate: 100%
[8]; feed intake (Kg) divided by body weight gain on day 7, prior to ET infection
  FCR Day 7-1: 2.42 ± 0.08
[8]; feed intake (Kg) divided by body weight gain on day 14, ET-infected
  FCR Day 14-1: 3.05 and 3.05 ± 0.13

## O=S([O-])S(=O)[O-].[Na+].[Na+] [sodium dithionite]
[9]
  reduction of sporulation of ET oocysts as compared to the PBS treatment group: 40%
